Read-outs that look alike come from different tables or passages of the source.
Legend:
recombinant human KCa3.1 = recombinant human KCa3.1 (Homo sapiens, UniProt O15554); assay: Whole patch clamp of potassium currents in CHO cells stably expressing recombinant human KCa3.1; format: cell-based; conditions: 1000 nM Senicapoc; FIG. 2 right panel; cell type not stated
[1] = tested on: human lung mast cells (HLMC); assay: HLMC chemotaxis (mast cell migration) assay, Transwell system; format: cell-based; conditions: airway smooth muscle-conditioned media; 10, 100, 1000 nM; 3 hours
Protocol: Mast cell migration studies were then performed by a method similar to as described in the method of Cruse et al. (Thorax. 2006 61:880-5). Briefly, HLMC chemotaxis assays were performed using the Transwell system with 24 wells. Airway smooth muscle-conditioned media was placed in the lower wells. […] After incubating the cells for 3 hours at 37° C., the number of HLMC in the bottom well were counted using Kimura stain in a hemocytometer. HLMC migration was calculated as the fold increase of migrated cells in the test wells compared with the negative control containing no chemoattractant in the lower well (FIG. 1).

A. suum sensitized sheep = assay: Ascaris suum allergen challenge model of asthma in sheep; format: in vivo
Protocol: Briefly, baseline lung resistance (RL) and carbachol concentration response curves were obtained prior to A. suum challenge in sheep. […] Lung resistance was subsequently measured at 0, 1, 2, 3, and 4 hours post allergen challenge to assess early airway responses and at 5, 6, 6.5, 7, 7.5 and 8 hours to assess late airway responses. At 24 hours post challenge, airway hyper-reactivity was determined based on responses to increasing doses of carbachol. Data were analyzed by a one way ANOVA followed by Dunnett's post hoc test when more than 2 groups were compared, or by a t-test when only 2 groups were compared.

[2] = Pharmacokinetics of Senicapoc in sheep plasma; format: in vivo; conditions: 30 mg/kg po b.i.d.; relative to levels required to block KCa3.1
Protocol: Since statistically significant effects were observed on lung resistance and airway hyper-reactivity following the 30 mg/kg dose, this level of exposure is sufficient to achieve efficacy in the sheep model. FIG. 7 illustrates exposure in man following administration of a range of doses. The average efficacious plasma level from the sheep model is illustrated by the dashed line.

[3] = Inhaled allergen challenge in human subjects, placebo vs Senicapoc, 13 days; format: in vivo; conditions: for fraction of exhaled nitric oxide: after 13 days of treatment, no change in placebo group
Protocol: FIG. 9. FIG. 9A study design. […] FIG. 9B. Change in FEV1 over time past allergen challenge (AC) in human subjects. The late allergen response (LAR) is the decline in FEV1 4 to 10 hours after patients were challenged with an inhaled allergen. The magnitude of the decline in LAR is quantified as the area bounded by the baseline FEV1 (0%), and the actual FEV1 measurements between hours 4 and 10. Subjects randomized to 13 days of treatment with placebo had no change in the LAR (left panel). […] By analysis of co-variance, the difference in LAR at Day 13 between the two treatment groups was 29%.
By analysis of co-variance, the difference in late airway responsiveness between the two treatment groups was 29% (see, FIG. 9B). In addition, the fraction of nitric oxide exhaled by Senicapoc-treated group declined with no change seen in the placebo group (data not shown).

Half-life in blood = format: in vitro ADME; conditions: including human blood
Source text: Triphenylacetamide-based K^+-channel blockers are promising candidates for the treatment of sickle cell disease (SCD) as discussed in U.S. Pat. No. 6,288,122 which is herein incorporated by reference. In addition, studies indicate that triphenylacetamide-based inhibitors are potential candidate drugs for the treatment of inflammatory conditions.

[4] = cited from earlier work; for mean Cmax / mean total systemic dose / oral clearance rate / terminal half-life: patients with sickle cell disease

NC(=O)C(c1ccccc1)(c1ccc(F)cc1)c1ccc(F)cc1 [Senicapoc, 2,2-bis(4-fluorophenyl)-2-phenylacetamide]
channel inhibition with varied voltage (recombinant human KCa3.1): nearly complete channel inhibition
HLMC migration resulting from inflammatory stimuli [1]: inhibits
reversal of the hyper-reactivity to carbachol (A. suum sensitized sheep; 30 mg/kg PO for 4 days): Complete reversal
apparent reduction in peak early response (A. suum sensitized sheep; 30 mg/kg PO, not statistically significant): 33%
average late allergen responses (lung resistance) (A. suum sensitized sheep; 5-8 hours after allergen challenge, oral, IV and inhalation routes): significantly attenuates
hyper-reactivity to aerosolized carbachol (A. suum sensitized sheep; 24 hours post A. suum challenge, all three routes of administration): significantly reduced
reversal of the hyper-reactivity to carbachol (A. suum sensitized sheep; acute 10 mg/kg IV dosing): Complete reversal
peak early airway responses (A. suum sensitized sheep; immediately after allergen challenge, 10 mg/kg IV): significantly reduced
plasma exposure corrected for protein binding [2]: sustained levels significantly above those required to block KCa3.1
difference in late airway responsiveness (LAR, FEV1 decline 4 to 10 hours) between Senicapoc and placebo groups ([3]; Day 13, 80 mg BID for three days, then 40 mg daily, analysis of co-variance): 29%
fraction of exhaled nitric oxide [3]: declined
fraction of exhaled nitric oxide ([3]; listed as senicapoc): decreased
half-life in blood (Half-life in blood): long half-life
mean elimination half-life ([4]; oral dose, across three clinical studies, 68 patients): 12 to 17 days
mean Cmax ([4]; 50 mg single dose): 59.1 ng/mL
mean total systemic dose ([4]; 50 mg single dose): 11,826 ng·hr/ml
oral clearance rate ([4]; 50 mg single dose): 4.75 L/h
terminal half-life ([4]; 50 mg single dose): 15.4 days
mean Cmax ([4]; 100 mg single dose): 108.7 ng/mL
mean total systemic dose ([4]; 100 mg single dose): 19,696 ng·hr/ml
oral clearance rate ([4]; 100 mg single dose): 6.1 L/h
terminal half-life ([4]; 100 mg single dose): 9.12 days
mean Cmax ([4]; 150 mg single dose): 109.1 ng/mL
mean total systemic dose ([4]; 150 mg single dose): 30,675 ng·hr/ml
oral clearance rate ([4]; 150 mg single dose): 5.8 L/h
terminal half-life ([4]; 150 mg single dose): 12.4 days
drug-related serious adverse events ([4]; phase I clinical studies): no drug-related serious adverse events
